According to patent US6682892B2, “Method for treating herpes viruses” (priority 2000, dated 2004):
pIC50: −log10 of the molar value. Like-named read-outs stand apart in the source and are kept apart here.

Legend:
Assay type in all cases: cell-based
[1] = test system: HSV-2 MS-M1 (V826A); assay: Plaque reduction assay, 4-oxo-DHQ resistant HSV-2 MS-M1; conditions: Table 5, mutant selected for 4-oxo-DHQ resistance; read-out: Plaque Reduction Assay - IC50 (μM) HSV-2 MS-M1
Protocol: (§1) Antiviral activity of compounds against herpesviruses such as HSV-1, HSV-2, or HCMV can be measured using plaque reduction assays. 0.1 ml of media containing approximately 50 PFU of virus is added to each well of a 24-well cell culture dish containing a confluent monolayer of cells (Vero cells for HSV-1 and HSV-2, HFF cells for HCMV). Compounds are dissolved in 100% DMSO and diluted in 100% DMSO as 200× stocks of the desired final drug concentration. Typically 5-6 two-fold dilutions are prepared for each compound. Dilutions of compounds are then added to media containing 0.8% CMC resulting in a final 1× drug concentration. After the virus-infected cells have incubated for 1 h at 37° C., the virus innoculum is removed and 1 ml of media containing 0.8% CMC and the various concentrations of compound is added to each well of the dish. The dish is incubated at 37° C. for approximately 2-3 days (HSV-1 and HSV-2) or 6-9 days (HCMV) to allow sufficient growth of virus to form plaques in the cell monolayer. Plaques can be observed and counted microscopically or by staining the cells with 0.1% crystal violet in 20% ethanol. […] Antiviral activity of a compound is expressed as the concentration of compound predicted to reduce the number of plaques in a well by 50% (IC50). The IC50 values are calculated by plotting the per cent inhibition vs. concentration of compound using EXCEL software for linear regression.
(§2) Vero cells are plated out at a density of 3.5×10^5 cells per well in a six well tissue culture plate. Cells are infected with HSV-1 KOS at a multiplicity of infection (moi) of 0.1 pfu/cell and 1 h post infection the cells are overlayed with 3 ml media containing 20 uM of a 4-oxo-DHQ. Cultures are incubated for 20 h at 37° C., freeze/thawed to release cell-associated virus, and 0.1 ml of culture is used to infect a new monolayer of Vero cells (one passage). Serial passage is repeated seven times in the presence of 20 uM drug. Virus isolates are then plaque purified three times prior to preparation of stocks. 4-oxo-DHQ resistant HSV-1 and HSV-2 may also be selected by the marker transfer method described below using wild-type HSV DNA and the corresponding mutant HSV polymerase gene.
(§3) A panel of viruses consisting of four strains of HSV-1 (KOS, F, DJL, Patton) and three strains of HSV-2 (MS, 35D, 186) are tested in a plaque reduction assay against four different 4-oxo-DHQ compounds (#1, 2, 4, 5 as shown in FIG. 1), and one 4-oxo-DHTP compound (#3 as shown in FIG. 1) and against Acyclovir. The six drugs inhibited replication of the seven virus strains with IC50 values ranging from 2-10 μM (Table 1). In order to select for 4-oxo-DHQ resistant mutants, HSV-1 strains KOS, F, and DJL along with HSV-2 strains 186 and MS are serially passaged in the presence of 20 uM compound 1. Following the seventh passage, 4-oxo-DHQ resistant virus from each strain are plaque purified three times and high-titer stocks are made.

[2] = test system: HSV-2 MS; assay: Plaque reduction assay, HSV-2 MS
Protocol: as §1, §3

[3] = test system: HSV-1 KOS; assay: Plaque reduction assay, HSV-1 KOS
Protocol: as §1, §3

[4] = test system: HSV-1 KOS-M1 (V823A); assay: Plaque reduction assay, 4-oxo-DHQ resistant HSV-1 KOS-M1; conditions: Table 5, mutant selected for 4-oxo-DHQ resistance; read-out: Plaque Reduction Assay - IC50 (μM) HSV-1 KOS-M1
Protocol: as §1, §2, §3

[5] = test system: HCMV AD169; assay: Plaque reduction assay, HCMV AD169; conditions: for IC50: Table 5, wild type strain, read-out: Plaque Reduction Assay - IC50 (μM) HCMV AD169; for pIC50: Table 4, plaque reduction, wild type, read-out: HCMV AD169 IC50
Protocol: as §1

[6] = test system: HCMV AD169-M1 (V823A, V824L); assay: Plaque reduction assay, 4-oxo-DHQ resistant HCMV AD169-M1
Protocol: as §1
A plasmid containing the wild-type HCMV polymerase gene is modified to contain the V823A or V823A and V824L mutations using a site-directed mutagenesis Kit (Stratagene Corp.) and following the manufactures's protocol. HFF cells are plated into T25 tissue culture flasks to achieve 80% confluency at the time of the transfection. Wild type HCMV AD 169 DNA and plasmid DNA containing the mutant HCMV polymerase gene are mixed at a ratio of 1:2 (2 ug of viral DNA to 4 ug of plasmid DNA). DNA's are transfected using superfect transfection reagent according to methods recommended by the manufacturer (Quiagen Inc.). Cells are harvested five days posttransfection, freeze-thawed to release virus and half of the sample is used to infect HFF cell monolayers. Cells are overlayed with media containing 20 uM 4-oxo-DHQ compound 2 (see FIG. 1). Serial passage is repeated seven times in the presence of 20 uM compound 2 and virus isolates are then plaque purified three times prior to preparation of viral stock.
In order to isolate an HCMV resistant mutant marker rescue experiments are done. Plasmids containing the mutant polymerase genes are transfected into HFF cells along with wild type HCMV AD169 DNA. The resulting virus is then serially passaged in the presence of 20 uM compound 1 (see FIG. 1). A 4-oxo-DHQ resistant virus is isolated from marker rescue studies done with the HCMV polymerase gene containing mutations that result in the V823A, V824L amino acid changes, but not with the gene containing V823A change alone.

[7] = test system: HSV-2 186; assay: Plaque reduction assay, HSV-2 186; conditions: Table 1, plaque reduction, Vero cells
Protocol: as §1, §3

[8] = test system: HSV-2 35D; assay: Plaque reduction assay, HSV-2 35D; conditions: Table 1, plaque reduction, Vero cells
Protocol: as §1, §3

[9] = test system: HSV-1 F; assay: Plaque reduction assay, HSV-1 F; conditions: Table 1, plaque reduction, Vero cells
Protocol: as §1, §3

[10] = test system: HSV-1 Patton; assay: Plaque reduction assay, HSV-1 Patton; conditions: Table 1, plaque reduction, Vero cells
Protocol: as §1, §3

[11] = test system: HSV-1 DJL; assay: Plaque reduction assay, HSV-1 DJL; conditions: Table 1, plaque reduction, Vero cells
Protocol: as §1, §3

[12] = Table 5, wild type strain, read-out: Plaque Reduction Assay - IC50 (μM) HSV-2 MS
[13] = Table 5, wild type strain, read-out: Plaque Reduction Assay - IC50 (μM) HSV-1 KOS
[14] = Table 5, mutant selected for 4-oxo-DHQ resistance, read-out: Plaque Reduction Assay - IC50 (μM) HCMV AD169-M1
[15] = Human betaherpesvirus 5, AD169, read-out: HCMV AD169 - M1 IC50 (μM)

SMILES	IC50 [1]	IC50 [2, 12]	IC50 [3, 13]	IC50 [4]	IC50 [5]	IC50 [6, 14]	further results
Cc1cn([C@@H]2O[C@H](CO)[C@@H](O)[C@@H]2O)c(=O)[nH]c1=O [AraT, Arabinosylthymine, reference compound]	3.6 µM	6.6 µM	11.6 µM	3.6 µM			
O=C(NCc1ccc(Cl)cc1)c1cnc2ccc(CCCO)cc2c1O [Compound 7]	27.9 µM	8.8 µM	6.5 µM	> 50 µM	0.3 µM	3.4 µM	
O=C(NCc1ccc(Cl)cc1)c1cn(N2CCOCC2)c2ccc(CN3CCOCC3)cc2c1=O [Compound 5]							IC50 [7]: 4.2 µM; IC50 [8]: 8.1 µM; IC50 [9]: 2.6 µM; IC50 ([2]; Table 1, plaque reduction, Vero cells, read-out: IC50 (uM), HSV-2 MS): 2.5 µM; IC50 ([3]; Table 1, plaque reduction, Vero cells, read-out: IC50 (uM), HSV-1 KOS): 3.3 µM; IC50 [10]: 10 µM; IC50 [11]: 2.7 µM
O=C(NCc1ccc(Cl)cc1)c1cn2c(CO)cc3cc(CN4CCOCC4)cc(c1=O)c32 [Compound 9]	48.7 µM	0.9 µM	1.9 µM	> 50 µM	< 0.1 µM	3.1 µM	
O=C(NCc1ccc(Cl)cc1)c1cn(C2COC2)c2ccc(CN3CCOCC3)cc2c1=O [Compound 11]	> 50 µM	3 µM	3.1 µM	> 50 µM	0.7 µM	3.9 µM	
O=C(O)P(=O)(O)O [PFA, Foscarnet, reference compound]							IC50 ([5]; Human betaherpesvirus 5, AD169): 38 µM; IC50 ([6]; Human betaherpesvirus 5, AD169, read-out: Plaque Reduction Assay - IC50 (μM) HCMV AD169-M1): < 20 µM
O=C(NCc1ccc(Cl)cc1)c1cnc2c(F)cccc2c1O [Compound 6]	> 50 µM	28.8 µM	24.6 µM	> 50 µM	5.1 µM	> 16 µM	
Cn1nc(C(=O)NCc2ccc(Cl)cc2)c(=O)c2cc(C#CCO)ccc21 [Compound 14]	> 50 µM	1.6 µM	28.4 µM	> 50 µM	0.9 µM	18.4 µM	
CN(Cc1cc2c(=O)c(C(=O)NCc3ccc(Cl)cc3)cn(C)c2s1)CC(O)c1ccccc1 (racemic) [Compound 8]	> 50 µM	2.3 µM	5.1 µM	> 50 µM	< 0.1 µM	1.1 µM	
Nc1nc(O)c2ncn(COC(CO)CO)c2n1 [Ganciclovir, reference compound]							pIC50 ([5]; Human betaherpesvirus 5, AD169): 6.05; IC50 ([5]; Human betaherpesvirus 5, AD169): 0.8 µM; IC50 [6, 15]: 1 µM; increase in IC50 / change in sensitivity, HCMV AD169-M1 [6]: < 2 fold
Cn1cc(C(=O)NCc2ccc(Br)cc2)c(=O)c2cc(CN3CCOCC3)sc21 [Compound 10]	> 50 µM	29.2 µM	15.8 µM	> 50 µM	1.1 µM	> 16 µM	
Cc1nc2c(cc1C#CCO)c(=O)c(C(=O)NCc1ccc(Cl)cc1)cn2C [Compound 15]	> 50 µM	5.9 µM	> 50 µM	> 50 µM	0.7 µM	7.7 µM	
Cn1cc(C(=S)NCc2ccc(Cl)cc2)c(=O)c2cc(C#CCO)ccc21 [Compound 13]	> 50 µM	5.3 µM	5.5 µM	< 25 µM	2.7 µM	> 16 µM	
Nc1ccn(C[C@@H](CO)OCP(=O)(O)O)c(=O)n1 [Cidofovir, reference compound]							pIC50 ([5]; Human betaherpesvirus 5, AD169): 6.52; IC50 ([5]; Human betaherpesvirus 5, AD169): 0.4 µM; IC50 [6, 15]: 0.6 µM; increase in IC50 / change in sensitivity, HCMV AD169-M1 [6]: < 2 fold
Cn1cc(C(=O)NCc2ccc(Cl)cc2)c(=O)c2cc(CN3CCOCC3)cc(C#CCO)c21 [Compound 12]	12.5 µM	0.4 µM	1.3 µM	> 50 µM	0.2 µM	1.1 µM	
O=c1[nH]c(=O)n([C@H]2C[C@H](O)[C@@H](CO)O2)cc1I [Iudr, Iododeoxyuridine, reference compound]	6.1 µM	5 µM	1.1 µM	0.8 µM			
Nc1ccn([C@@H]2O[C@H](CO)[C@@H](O)[C@@H]2O)c(=O)n1 [AraC, Arabinosylcytidine, reference compound]	0.1 µM	0.2 µM	0.2 µM				
